This is an account of results in patent US7531517B2, “Inhibitors of cancer cell, T-cell and keratinocyte proliferation” (4SC AG, priority 2005, dated 2009).

For this test, the target named is T1, human Proteasome (20S proteasome, chymotryptic activity) (Homo sapiens, UniProt P28074).
T1 construct: purchased Immatics, Tübingen
The experiment in a line: chymotryptic activity of the 20S proteasome (Suc-LLVT-AMC substrate, fluorescence). It counts as biochemical. As to conditions: for human Proteasome IC50: given in words only. The procedure:
The chymotryptic activity of the 20S proteasome (Immatics, Tüibingen) was determined using a Tecan Ultra plate reader and Suc-LLVT-AMC as substrate (Bachem). In the wells of a black 96 well polypropylene plate, 2 μl of the respective inhibitor dissolved in DMSO were mixed with 50 μl substrate solution (25 mM HEPES pH 7.5 at 20° C., 0.5 mM EDTA and Suc-LLVT-AMC (in the appropriate concentration) and the reaction was initiated by adding 150 μl proteasome solution (1.3 μg/ml 20S proteasome in 25 mM HEPES pH 7.5 at 20° C., 0.5 mM EDTA, 0.033% (w/v) SDS). Substrate hydrolysis was followed by fluorescence spectroscopy (excitation wavelength: 360 nm; emission wavelength: 465 nm) for 20 min at 30° C. and initial velocities were calculated and expressed as change in relative fluorescence units (RFU) per second.

SMILES strings stand for the structures.

What is called IC50 is the concentration that gives 50% inhibition. Read a high IC50 as lower potency.

In the case of `O=C1CN(/N=C/C(Cc2ccccc2)NC(=O)C(Cc2c[nH]c3ccccc23)NC(=O)C(Cc2c[nH]c3ccccc23)NC(=O)OCc2cnccn2)C(=O)N1` (stereo not drawn) [Compound 8], where the note is “unit nm [sic]”, 133 nM corresponded to half-maximal inhibition (IC50). `O=C1CN(/N=C/C(Cc2ccccc2)NC(=O)C(Cc2c[nH]c3ccccc23)NC(=O)C(Cc2c[nH]c3ccccc23)NC(=O)Cc2cccc(Oc3ccccc3)c2)C(=O)N1` (stereo not drawn) [Compound 3] had an IC50 (unit nm [sic]) of 224 nM. As for `O=C1CN(/N=C/C(Cc2ccccc2)NC(=O)C(Cc2c[nH]c3ccccc23)NC(=O)C(Cc2c[nH]c3ccccc23)NC(=O)CCCCC2SCC3NC(=O)NC32)C(=O)N1` (stereo not drawn) [Compound 2], 76 nM corresponded to half-maximal inhibition (unit cell prints nM) (IC50). As to `O=C1CN(N=CC(Cc2ccccc2)NC(=O)C(Cc2ccc3ccccc3c2)NC(=O)C(Cc2ccc(Br)cc2)NC(=O)OCc2ccccc2)C(=O)N1` (stereo not drawn) [Compound 5], the “human Proteasome IC50” value is “nanomolar”. `COc1cc(C(=O)NC(/C=N/N2CC(=O)NC2=O)Cc2ccccc2)nc(OC)n1` (stereo not drawn) [Compound 14]: the midpoint of inhibition (unit μm [sic]), the IC50, lay at 2960 nM. On the same count and under the same terms, the figure for `O=C1CN(/N=C\C(Cc2ccccc2)NC(=O)C2C=Cc3cc(Cl)ccc3O2)C(=O)N1` (stereo not drawn) [Compound 11] is 3540 nM. On to `CC(C)(C)OC(=O)NC(Cc1ccc(Br)cc1)C(=O)NC(Cc1ccc2ccccc2c1)C(=O)NC(/C=N/N1CC(=O)NC1=O)Cc1ccccc1` (stereo not drawn) [Compound 7], for which the “human Proteasome IC50” value is reported as “nanomolar”.

Regarding `O=C1CN(/N=C/C(Cc2ccccc2)NC(=O)C(Cc2ccc3ccccc3c2)NC(=O)C(Cc2ccc(F)cc2)NC(=O)OCc2ccccc2)C(=O)N1` (stereo not drawn) [Compound 9], the “human Proteasome IC50” value is reported as “nanomolar”. As to `O=C1CN(/N=C/C(Cc2ccccc2)NC(=O)C(Cc2c[nH]c3ccccc23)NC(=O)C(Cc2c[nH]c3ccccc23)NC(=O)OCc2ccccc2)C(=O)N1` (stereo not drawn) [Compound 1], the IC50 (unit nm [sic]) stood at 157 nM. In turn, `O=C(/C=C/c1ccccc1)NC(/C=N\N1CC(=O)NC1=O)Cc1ccccc1` (stereo not drawn) [Compound 12] showed an IC50 (unit μm [sic]) of 2210 nM.

`O=C1CN(/N=C/C(Cc2ccccc2)NC(=O)C(Cc2c[nH]c3ccccc23)NC(=O)C(Cc2c[nH]c3ccccc23)NC(=O)OCc2cccnc2)C(=O)N1` (stereo not drawn) [Compound 4] gave an IC50 (unit nm [sic]) of 61 nM.

On to `O=C1CN(N=CC(Cc2ccccc2)NC(=O)C(Cc2ccc3ccccc3c2)NC(=O)C(Cc2ccc(Br)cc2)NC(=O)OCc2cccnc2)C(=O)N1` (stereo not drawn) [Compound 6], for which the “human Proteasome IC50” value was “nanomolar”.
